Experiments:
Mus musculus [1] = species: Mus musculus; test: Anticonvulsant activity in ICR mouse after 30 mins by MES test; assay type: functional; conditions: 0.5 h
Mus musculus [2] = species: Mus musculus; test: Anticonvulsant activity against pentylenetetrazole-induced seizure in ICR mouse after 30 mins; assay type: functional; conditions: 0.5 h

| Structure (SMILES) | ED50 (Mus musculus [1]) [mg/kg] | ED50 (Mus musculus [2]) [mg/kg] |
| --- | --- | --- |
| O=C(NC1COCC(=O)N(O)C1=O)OCc1ccccc1 (stereo unspecified) | 93.8 | 96.9 |
| O=C(NC1COCC(=O)N(C2CC2)C1=O)OCc1ccccc1 (stereo unspecified) | 87.5 | 27 |
| O=C(NC1COCC(=O)N(Cc2ccco2)C1=O)OCc1ccccc1 (stereo unspecified) | > 100 | 64.1 |
| CCCCN1C(=O)COCC(NC(=O)OCc2ccccc2)C1=O (stereo unspecified) | 93.8 | 34.8 |
| CN1C(=O)COCC(NC(=O)OCc2ccccc2)C1=O (stereo unspecified) | 68.8 | 41 |
| O=C(NC1COCC(=O)N(Cc2ccc(F)cc2)C1=O)OCc1ccccc1 (stereo unspecified) | > 100 | 53.9 |
| O=C(NC1COCC(=O)N(Cc2ccccc2)C1=O)OCc1ccccc1 (stereo unspecified) | > 100 | 64.1 |
| O=C1COCC(NC(=O)OCc2ccccc2)C(=O)N1 (stereo unspecified) | 81.2 | 55.1 |
| CCCCCCN1C(=O)COCC(NC(=O)OCc2ccccc2)C1=O (stereo unspecified) | 87.5 | 35.6 |
| C=CCN1C(=O)COCC(NC(=O)OCc2ccccc2)C1=O (stereo unspecified) | 70.3 | 37.1 |
| CCCN1C(=O)COCC(NC(=O)OCc2ccccc2)C1=O (stereo unspecified) | > 100 | > 100 |
| CC(C)CN1C(=O)COCC(NC(=O)OCc2ccccc2)C1=O (stereo unspecified) | > 100 | > 100 |
| CCCC(CCC)C(=O)O [VALPROIC ACID] | 271 | 149 |

From ChEMBL document CHEMBL1143098, “Design and synthesis of 6-amino-1,4-oxazepane-3,5-dione derivatives as novel broad spectrum anticonvulsants” (2008)
